Assay results: patent US20260085081A1, “PHOSPHATIDYLAMINE COMPOUNDS INCLUDING A PLURALITY OF TERTIARY AMINO GROUP STRUCTURES AND COMPOSITIONS THEREOF” (PEKING UNIVERSITY, priority 2022, published 2026)

Columns and labels:
[1] = system: Fluc-mRNA (luciferase expression); experiment: In vivo transfection efficiency of Fluc-mRNA lipid nanoparticles after intramuscular injection; set-up: species or system mice; settings: for Intramuscular injection (PL/MC3) expression strength level: ratio of expression PL/MC3; for in vivo transfection (expression, FIG. 5): weight ratio lipid nanoparticle/RNA 10:1, DOPE or DSPC group; for in vivo transfection (expression, FIG. 5) / expression in vivo compared with control MC3: 3 μg Fluc-mRNA/mouse; for expression in vivo compared with control MC3: DOPE group, weight ratio 10:1
Experimental: 6 h after intramuscular injection of mRNA LNPs, mice were injected intraperitoneally with 0.2 mL […] (20 mg/mL PBS solution). After 10 min, mice were anesthetized with isoflurane in oxygen in a ventilated anesthesia room and imaged with an imaging system (IVIS, PerkinElmer), and luminescence was quantified using Living Image software (PerkinElmer).

[2] = Summary of the strongest expressions over the administration routes; settings: strongest level of the three administrations
From the text: (§1) Finally, the expression levels of lipid nanoparticles with a plurality of tertiary amine groups from the embodiments of the present disclosure after intramuscular injection, white adipocyte administration, and intraperitoneal injection are summarized, and compared with lipid nanoparticles prepared from commercially available cationic lipids MC3 and SM102. […] However, the expression rates of the phosphatidylamine lipids with a plurality of tertiary amine groups from embodiments of the present disclosure are higher than that of SM102.

adipose tissue = experiment: Intraperitoneal injection of Fluc-mRNA LNPs, expression and distribution; type: in vivo, mice; settings: for expression compared with control SM102: intraperitoneal injection; for Intraperitoneal injection (PL/SM102) expression strength level: ratio of expression PL/SM102
Experimental: FIG. 10 illustrates the effect of Fluc-mRNA LNPs composed of different structural cationic lipids on the mRNA delivery efficiency after intraperitoneal administration according to some embodiments of the present disclosure. Targeting and expression of PL lipids on adipose tissue after intraperitoneal administration is also evaluated. […] That is to say, the PL lipid structure with the plurality of tertiary amino group structures may enhance the selective targeting of visceral adipocytes. […]
as §1

white adipocyte = experiment: White adipocyte administration, expression relative to SM102; type: cell-based; settings: for White adipocyte administration (PL/SM102) expression strength level: ratio of expression PL/SM102; for expression compared with control SM102: white adipocyte administration
From the text: as §1

Compound | Intramuscular injection (PL/MC3) expression strength level [1] | in vivo transfection (expression, FIG. 5) [1] | Summary of the strongest expressions [2] | expression compared with control SM102 (adipose tissue) | Intraperitoneal injection (PL/SM102) expression strength level (adipose tissue) | White adipocyte administration (PL/SM102) expression strength level (white adipocyte) | expression compared with control SM102 (white adipocyte) | expression in vivo compared with control MC3 [1]
CCCCCCCCCCCCN(CCCCCCCCCCCC)CCCN1CCN(CCCNP(=O)(OCC(CCCCCC)CCCCCCCC)OCC(CCCCCC)CCCCCCCC)CC1 (stereo not shown) [PL33] | A (A: ≥2) | expressed | A (A: ≥2) | – | – | – | – | –
CCCCCCCCCCCCN(CCCCCCCCCCCC)CCCN1CCN(CCCNP(=O)(OCCC(C)CCCC(C)CCCC(C)CCCC(C)C)OCCC(C)CCCC(C)CCCC(C)CCCC(C)C)CC1 (stereo not shown) [PL95] | – | – | A (A: ≥2) | superior to that of the control SM102 | A (A: ≥2) | – | – | –
CCCCCCCCC(CCCCCC)CNCCCN1CCN(CCCNP(=O)(OCC(CCCCCC)CCCCCCCC)OCC(CCCCCC)CCCCCCCC)CC1 (stereo not shown) [PL45] | C (C: ≥0.1 and <1) | – | C (C: ≥0.1 and <1) | – | – | C (C: ≥0.1 and <1) | – | –
CCCCCCCC/C=C\CCOC(=O)CCCOP(=O)(NCCN(CCCCCCCCCCCC)CCCN(C)C)OCCCC(=O)OCC/C=C\CCCCCCCC [PL13] | A (A: ≥2) | expressed | A (A: ≥2) | – | – | D (D: <0.1) | – | –
CCCCCCCCCCCCN(CCCCCCCCCCCC)CCCN1CCN(CCCNP(=O)(OCCOC(=O)CC(C)CCCC(C)CCCC(C)CCCC(C)C)OCCOC(=O)CC(C)CCCC(C)CCCC(C)CCCC(C)C)CC1 (stereo not shown) [PL96] | – | – | C (C: ≥0.1 and <1) | – | C (C: ≥0.1 and <1) | – | – | –
CCCCC/C=C\C/C=C\CCCCCCCCOP(=O)(NCCCN1CCN(CCCN(CCCCCCCCCCCC)CCCCCCCCCCCC)CC1)OCCCCCCCC(=O)OC(CC)CCCCCCCC (stereo not shown) [PL103] | A (A: ≥2) | expressed | A (A: ≥2) | – | – | – | – | –
CC/C=C\C/C=C\C/C=C\C/C=C\C/C=C\CCCC(=O)OCCCCCCOP(=O)(NCCCN1CCN(CCCN(CC(O)CCCCCCCCCC)CC(O)CCCCCCCCCC)CC1)OCCCCCCOC(=O)CCC/C=C\C/C=C\C/C=C\C/C=C\C/C=C\CC (stereo not shown) [PL79] | – | – | B (B: ≥1 and <2) | – | C (C: ≥0.1 and <1) | B (B: ≥1 and <2) | superior to that of the control SM102 | –
CCCCCCCCCCCCN(CCCCCCCCCCCC)CCCN1CCN(CCCNP(=O)(OCCCCCCCC(=O)OC(CCCCCCCC)CCCCCCCC)OCCCCCCCC(=O)OC(CCCCCCCC)CCCCCCCC)CC1 [PL31] | A (A: ≥2) | expressed | A (A: ≥2) | – | – | D (D: <0.1) | – | better than that of control MC3
CCCCC/C=C\C/C=C\CCCCCCCCOP(=O)(NCCN1CCN(CCOC(=O)CCN(CCCCCCCCCCCC)CCCCCCCCCCCC)CC1)OCCCCCCCC/C=C\C/C=C\CCCCC [PL26] | A (A: ≥2) | expressed | A (A: ≥2) | – | – | C (C: ≥0.1 and <1) | – | better than that of control MC3
CCCCCCCCCCC(CCCCCCCCCC)CNCCCN1CCN(CCCNP(=O)(OCCCCCCCC(=O)OC(CCCCCCCC)CCCCCCCC)OCCCCCCCC(=O)OC(CCCCCCCC)CCCCCCCC)CC1 [PL41] | A (A: ≥2) | expressed | A (A: ≥2) | – | – | C (C: ≥0.1 and <1) | – | –
CCCCC/C=C\C/C=C\CCCCCCCCOP(=O)(NCCCN1CCN(CCCN(CCCCCCC(=O)OC(CC)CCCCCCCC)CCCCCCC(=O)OC(CC)CCCCCCCC)CC1)OCCCCCCCC/C=C\C/C=C\CCCCC (stereo not shown) [PL29] | A (A: ≥2) | expressed | A (A: ≥2) | – | – | B (B: ≥1 and <2) | superior to that of the control SM102 | better than that of control MC3
CCCCC/C=C\C/C=C\C/C=C\CCCCCOP(=O)(NCCCN1CCN(CCCN(CCCCCCCCCCCC)CCCCCCCCCCCC)CC1)OCCCCC/C=C\C/C=C\C/C=C\CCCCC [PL94] | – | – | A (A: ≥2) | superior to that of the control SM102 | A (A: ≥2) | – | – | –
CCCCC/C=C\C/C=C\CCCCCCCCOP(=O)(NCCCN1CCN(CCCN(CCCCCCC(=O)OC(CCCCCCCC)CCCCCCCC)CCCCCCC(=O)OC(CCCCCCCC)CCCCCCCC)CC1)OCCCCCCCC/C=C\C/C=C\CCCCC [PL28] | A (A: ≥2) | expressed | A (A: ≥2) | – | – | C (C: ≥0.1 and <1) | – | –
CCCCC/C=C\C/C=C\CCCCCCCCOP(=O)(NCCCN1CCN(CCCN(CCCCCCCCCCCC)CCCCCCCCCCCC)CC1)OCCCCCCCC(=O)OC(CCCCCCCC)CCCCCCCC (stereo not shown) [PL30] | A (A: ≥2) | expressed | A (A: ≥2) | – | – | D (D: <0.1) | – | better than that of control MC3
CCCCC/C=C\C/C=C\C/C=C\CCCCC(=O)OCCOP(=O)(NCCCN1CCN(CCCN(CCCCCCCCCCCC)CCCCCCCCCCCC)CC1)OCCOC(=O)CCCC/C=C\C/C=C\C/C=C\CCCCC [PL93] | – | – | A (A: ≥2) | superior to that of the control SM102 | A (A: ≥2) | – | – | –
CCCCCCCCCCCCN(CCCCCCCCCCCC)CCCN1CCN(CCCNP(=O)(OCCCCCCCC(=O)OC(CC)CCCCCCCC)OCCCCCCCC(=O)OC(CC)CCCCCCCC)CC1 (stereo not shown) [PL32] | A (A: ≥2) | expressed | A (A: ≥2) | – | – | – | – | –
CCCCC/C=C\C/C=C\CCCCCCCCOP(=O)(NCCCN1CCN(CCCNCC(CCCCCC)CCCCCCCC)CC1)OCCCCCCCC/C=C\C/C=C\CCCCC (stereo not shown) [PL44] | C (C: ≥0.1 and <1) | – | C (C: ≥0.1 and <1) | – | – | C (C: ≥0.1 and <1) | – | –
CCCCCCCCCCCCN(CCCCCCCCCCCC)CCCN1CCN(CCCNP(=O)(OCCCCCCCC(=O)OC(C)CC(=O)OCC)OCCCCCCCC(=O)OC(C)CC(=O)OCC)CC1 (stereo not shown) [PL97] | – | – | C (C: ≥0.1 and <1) | – | C (C: ≥0.1 and <1) | – | – | –
CCCCCCCCCCC(CCCCCCCCCC)CN(CCCN1CCN(CCCNP(=O)(OCCCCCCCC(=O)OC(CCCCCCCC)CCCCCCCC)OCCCCCCCC(=O)OC(CCCCCCCC)CCCCCCCC)CC1)CC(CCCCCCCCCC)CCCCCCCCCC [PL36] | – | – | C (C: ≥0.1 and <1) | – | – | C (C: ≥0.1 and <1) | – | –
